According to paper PMC8092876, “A Leucyl-tRNA Synthetase Inhibitor with Broad-Spectrum Antimycobacterial Activity” (Antimicrobial Agents and Chemotherapy, 2021):
Values after ≈ are worked out from the molar mass of the structure shown. Read-outs that look alike come from different tables or passages of the source.

Assays:
[1] = tested on: M. abscessus Bamboo; test: MIC assay in 96-well plate format; type: cell-based, M. abscessus subsp. abscessus; conditions: Mycobacteroides abscessus
[2] = tested on: M. abscessus subsp. bolletii CCUG 50184T; test: MIC assay in 96-well plate format; type: cell-based; conditions: Mycobacteroides abscessus, culture collection reference strain
[3] = tested on: M. abscessus subsp. abscessus M422; test: MIC assay in 96-well plate format; type: cell-based; conditions: Mycobacteroides abscessus; M. abscessus subsp. abscessus M422, clinical isolate
[4] = tested on: M. abscessus subsp. bolletii M232; test: MIC assay in 96-well plate format; type: cell-based; conditions: Mycobacteroides abscessus; M. abscessus subsp. bolletii M232, clinical isolate
[5] = tested on: M. chimaera CCUG 50989T; test: MIC assay in 96-well plate format; type: cell-based; conditions: CCUG50989T, culture collection reference strain
[6] = tested on: M. abscessus Bamboo RM1 (LeuS A428P); test: microbe, parasite or virus in culture; type: cell-based; conditions: Mycobacteroides abscessus
[7] = tested on: M. abscessus Bamboo; type: cell-based
[8] = Kinetic aqueous solubility assay (CLND); type: physicochemical; conditions: aqueous buffer, kinetic from dmso stock, pH 7.4 phosphate-buffered saline
Method: The aqueous solubility of test compounds was measured using an in-house method utilizing quantification via chemiluminescent nitrogen detection (CLND): 5 μl of 10 mM DMSO stock solution was diluted to 100 μl with pH 7.4 phosphate-buffered saline, equilibrated for 1 h at room temperature, and filtered through Millipore Multiscreen HTS-PCF filter plates (MSSL BPC). The eluent is quantified by a suitably calibrated flow injection chemiluminescent nitrogen detection (CLND or CAD). This assay has a dynamic range between the lower detection limit of 1 and 500 μM, governed by the protocol’s 1:20 dilution into pH 7.4 phosphate buffer solution from nominal 10 mM DMSO stock.

[9] = Stability in microsomes; type: in vitro ADME
Method: Intrinsic clearance (CLi) values were determined in mouse and human liver microsomes. Test compounds (final concentration 0.5 μM) were incubated at 37°C for 30 min in 50 mM potassium phosphate buffer (pH 7.4) containing 0.5 mg microsomal protein/ml. The reaction was started by addition of cofactor NADPH. At 0, 5, and 20 min, an aliquot (90 μl) was taken, quenched with acetonitrile-methanol containing an appropriate internal standard, centrifuged, and analyzed by liquid chromatography-tandem mass spectrometry (LC-MS/MS). The intrinsic clearance (CLi) was determined using the following equation: CLi = k(ml of incubation/mg microsomal protein) × (mg microsomal protein/g liver)where k is the turnover rate constant of the ln(% remaining compound) versus time regression and mg microsomal protein/g liver is 52.5 for both mouse and human.

[10] = Mouse pharmacokinetics, intravenous administration; type: in vivo
Method: For pharmacokinetic studies, CD-1 male mice (22 to 25 g) were used for intravenous route and C57BL/6 female mice (18 to 20 g) were used for oral route. All animal studies were ethically reviewed and carried out in accordance with European Directive 2010/63/EU and the GSK policy on the care, welfare, and treatment of animals.
EC/11770 was administered by intravenous route at 1 mg/kg single dose in saline and by oral gavage at 1 mg/kg and 10 mg/kg single doses in 1% methyl cellulose (1% MC). Aliquots of 20 μl of blood were taken from the lateral tail vein by puncture from each mouse (n = 3 per route and dose) at 5, 15, and 30 min 1, 2, 4, 6, 8, and 24 h postdose for intravenous route and at 15, 30, and 45 min 1, 2, 4, 6, 8, and 24 h postdose for oral route. The blood aliquots were mixed with 40 μl of water and stored at −80°C prior to analysis. The samples were processed by protein precipitation: aliquots of 20 μl were mixed with acetonitrile/methanol (80:20 vol/vol) and then filtered in 0.45 μm well-plates (hydrophobic polytetrafluorethylene [PTFE], Millipore). The filtrates were analyzed by UPLC-MS/MS for the establishment of compound concentration. The ultraperformance liquid chromatography (UPLC)-MS/MS system included a UPLC Acquity (Waters) and an API4000 mass spec. (AB Sciex). A volume of 7.5 μl of sample was injected into the system, with an UPLC solvent gradient of 2 min and with a positive multiple reaction monitoring (MRM) mass detection mode.
Pharmacokinetic analysis was performed by noncompartmental data analysis (NCA) with Phoenix WinNonlin 6.3 (Pharsight, Certara L.P), and supplementary analysis was performed with GraphPad Prism 6 (GraphPad Software, Inc.).

SMILES: CC(C)(O)COc1ccc(Br)c2c1B(O)O[C@@H]2CN [EC/11770]
- MIC [1]: 0.9 µM (≈ 0.297 µg/mL)
- MIC ([1]; 72 h, M. abscessus Bamboo, 7H9, 3 days, read-out: MIC): 1.2 µM (≈ 0.396 µg/mL)
- MIC ([1]; 72 h, M. abscessus Bamboo, CAMH broth, 3 days, read-out: MIC): 0.7 µM (≈ 0.231 µg/mL)
- MIC [2]: 1.3 µM (≈ 0.429 µg/mL)
- MIC [3]: 0.33 µM (≈ 0.109 µg/mL)
- MIC [4]: 0.67 µM (≈ 0.221 µg/mL)
- MIC [5]: 1.7 µM (≈ 0.561 µg/mL)
- MIC [6]: > 100 µM
- frequency of resistance [7]: 3.9 × 10^−8 /CFU
- solubility at 1 h [8]: 349 µM (≈ 115 µg/mL)
- Human in vitro CLint ([9]; human hepatic microsomes): <0.5 <0.5 ml/min/g tissue
- Mouse in vitro CLint ([9]; mouse hepatic microsomes): <0.5 <0.5 ml/min/g tissue
- half-life ([10]; male, CD-1, whole blood, mouse, intravenous 1 mg/kg, average (SD)): 5.3 h
- Vd ([10]; male, CD-1, whole blood, mouse, intravenous 1 mg/kg, average (SD), read-out: Vss): 2.4 L/kg
- AUC(0-inf) ([10]; male, CD-1, mouse, intravenous 1 mg/kg, whole blood, average (SD)): 3340 ng·h/mL
- in vivo clearance as share of liver blood flow in mice ([10]; mouse, intravenous 1 mg/kg, liver blood flow 90 to 126 ml/min/kg): approximately 5%
- clearance ([10]; whole blood, mouse (CD-1 male), intravenous 1 mg/kg in saline, average (SD), read-out: In vivo CL): 5 mL/min/kg
